Reference: patent publication US11713338B2, “Cyclic peptides multimers targeting α-4-β-7 integrin” (priority 2016, dated 2023)

Each molecule was assayed against T1, recombinant integrin α4β7 (Homo sapiens, UniProt P13612+P26010, DEL724-798) (assay: Integrin α4β7—MAdCAM-1 ELISA competition assay). Details: read-out: ELISA α4β7 Assay IC50.
T1 construct: purchased R&D Systems 5397-A3-050
T1 sequence (P13612 34-970 limits assumed): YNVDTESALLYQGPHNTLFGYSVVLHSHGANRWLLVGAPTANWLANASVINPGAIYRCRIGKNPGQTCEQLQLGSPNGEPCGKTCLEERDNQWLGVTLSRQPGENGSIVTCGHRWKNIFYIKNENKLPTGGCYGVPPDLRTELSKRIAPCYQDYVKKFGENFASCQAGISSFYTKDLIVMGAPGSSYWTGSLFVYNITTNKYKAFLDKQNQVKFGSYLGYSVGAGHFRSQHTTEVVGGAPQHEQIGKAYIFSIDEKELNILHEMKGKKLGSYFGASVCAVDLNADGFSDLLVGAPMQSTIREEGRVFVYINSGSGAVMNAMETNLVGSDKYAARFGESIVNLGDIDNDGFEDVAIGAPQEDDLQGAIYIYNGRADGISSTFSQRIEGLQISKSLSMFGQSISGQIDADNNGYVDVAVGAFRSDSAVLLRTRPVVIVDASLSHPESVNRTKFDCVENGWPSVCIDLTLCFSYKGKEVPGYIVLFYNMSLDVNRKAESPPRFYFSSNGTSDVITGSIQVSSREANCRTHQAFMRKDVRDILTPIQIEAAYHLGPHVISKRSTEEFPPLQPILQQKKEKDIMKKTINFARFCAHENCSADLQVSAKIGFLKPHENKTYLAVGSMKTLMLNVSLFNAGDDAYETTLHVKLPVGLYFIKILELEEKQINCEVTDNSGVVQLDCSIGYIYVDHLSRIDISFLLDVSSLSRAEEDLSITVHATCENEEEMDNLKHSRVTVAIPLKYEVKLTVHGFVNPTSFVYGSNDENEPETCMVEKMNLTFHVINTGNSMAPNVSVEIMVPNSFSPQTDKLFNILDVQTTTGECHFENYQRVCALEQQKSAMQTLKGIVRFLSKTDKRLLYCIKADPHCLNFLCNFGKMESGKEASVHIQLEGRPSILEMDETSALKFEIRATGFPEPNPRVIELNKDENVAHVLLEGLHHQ
T1 sequence (P26010 20-723 limits assumed): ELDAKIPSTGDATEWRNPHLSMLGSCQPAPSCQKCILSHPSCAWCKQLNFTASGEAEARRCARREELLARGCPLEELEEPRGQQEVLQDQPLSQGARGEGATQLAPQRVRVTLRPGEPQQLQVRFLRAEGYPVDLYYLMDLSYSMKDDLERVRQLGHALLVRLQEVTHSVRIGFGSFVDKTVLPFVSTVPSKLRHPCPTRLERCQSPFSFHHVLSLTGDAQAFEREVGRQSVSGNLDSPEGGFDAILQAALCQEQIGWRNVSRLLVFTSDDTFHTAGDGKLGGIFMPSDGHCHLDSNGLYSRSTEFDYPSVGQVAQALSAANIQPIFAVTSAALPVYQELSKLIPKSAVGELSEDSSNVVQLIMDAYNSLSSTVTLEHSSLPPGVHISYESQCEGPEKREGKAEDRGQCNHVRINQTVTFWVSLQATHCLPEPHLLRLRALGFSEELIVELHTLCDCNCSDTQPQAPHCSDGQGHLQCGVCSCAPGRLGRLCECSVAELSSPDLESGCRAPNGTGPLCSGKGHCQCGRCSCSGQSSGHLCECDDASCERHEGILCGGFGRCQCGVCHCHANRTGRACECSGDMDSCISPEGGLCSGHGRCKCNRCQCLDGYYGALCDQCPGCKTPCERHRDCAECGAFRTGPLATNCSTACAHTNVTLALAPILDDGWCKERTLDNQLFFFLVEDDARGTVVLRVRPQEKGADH
Type: binding
`CC(C)C[C@@H]1NC(=O)c2ccc(-c3ccc(N4CCN(C(=O)CC[C@H](N)C(=O)N5CCN(c6ccc(-c7ccc8cc7CNC(=O)[C@@H]7CCCN7[C@H](C(=O)NC(C)(C)C)[C@H](C)NC(=O)[C@H]([C@@H](C)O)NC(=O)[C@H](CC(=O)O)NC(=O)[C@H](CC(C)C)NC8=O)cc6)CC5)CC4)cc3)c(c2)CNC(=O)[C@@H]2CCCN2[C@H](C(=O)NC(C)(C)C)[C@H](C)NC(=O)[C@H]([C@@H](C)O)NC(=O)[C@H](CC(=O)O)NC1=O` [Compound 494] gave an IC50 of 0.0094 µM. For `CC(C)C[C@@H]1NC(=O)C[C@H](CCCCN)N(C)C(=O)[C@H](CCCCNC(=O)c2ccccc2-c2ccccc2C(=O)NCCCC[C@@H]2NC(=O)[C@@H]3CCCN3[C@H](C(=O)NC(C)(C)C)[C@H](C)NC(=O)[C@H]([C@@H](C)O)NC(=O)[C@H](CC(=O)O)NC(=O)[C@H](CC(C)C)NC(=O)C[C@H](CCCCN)N(C)C2=O)NC(=O)[C@@H]2CCCN2[C@H](C(=O)NC(C)(C)C)[C@H](C)NC(=O)[C@H]([C@@H](C)O)NC(=O)[C@H](CC(=O)O)NC1=O` [Compound 535], the IC50 was 0.0086 µM. Molecule `CC(C)C[C@@H]1NC(=O)c2ccc(-c3ccc(N4CCN(C(=O)CCOCCOCCNC(=O)CCCCCC(=O)NCCOCCOCCC(=O)N5CCN(c6ccc(-c7ccc8cc7CNC(=O)[C@@H]7CCCN7[C@H](C(=O)NC(C)(C)C)[C@H](C)NC(=O)[C@H]([C@@H](C)O)NC(=O)[C@H](CC(=O)O)NC(=O)[C@H](CC(C)C)NC8=O)cc6)CC5)CC4)cc3)c(c2)CNC(=O)[C@@H]2CCCN2[C@H](C(=O)NC(C)(C)C)[C@H](C)NC(=O)[C@H]([C@@H](C)O)NC(=O)[C@H](CC(=O)O)NC1=O` [Compound 505] has an IC50 of 0.019 µM. For `CC(C)C[C@@H]1NC(=O)C[C@H](CCCCN)N(C)C(=O)[C@H](CCCCNC(=O)c2cc(C(=O)NCCCC[C@@H]3NC(=O)[C@@H]4CCCN4[C@H](C(=O)NC(C)(C)C)[C@H](C)NC(=O)[C@H]([C@@H](C)O)NC(=O)[C@H](CC(=O)O)NC(=O)[C@H](CC(C)C)NC(=O)C[C@H](CCCCN)N(C)C3=O)cc(C(=O)NCCCC[C@@H]3NC(=O)[C@@H]4CCCN4[C@H](C(=O)NC(C)(C)C)[C@H](C)NC(=O)[C@H]([C@@H](C)O)NC(=O)[C@H](CC(=O)O)NC(=O)[C@H](CC(C)C)NC(=O)C[C@H](CCCCN)N(C)C3=O)c2)NC(=O)[C@@H]2CCCN2[C@H](C(=O)NC(C)(C)C)[C@H](C)NC(=O)[C@H]([C@@H](C)O)NC(=O)[C@H](CC(=O)O)NC1=O` [Compound 538], the IC50 was 0.01 µM. `CC(C)C[C@@H]1NC(=O)c2ccc(-c3ccc(N4CCN(C(=O)c5ccc(-c6ccc(C(=O)N7CCN(c8ccc(-c9ccc%10cc9CNC(=O)[C@@H]9CCCN9[C@H](C(=O)NC(C)(C)C)[C@H](C)NC(=O)[C@H]([C@@H](C)O)NC(=O)[C@H](CC(=O)O)NC(=O)[C@H](CC(C)C)NC%10=O)cc8)CC7)cc6)cc5)CC4)cc3)c(c2)CNC(=O)[C@@H]2CCCN2[C@H](C(=O)NC(C)(C)C)[C@H](C)NC(=O)[C@H]([C@@H](C)O)NC(=O)[C@H](CC(=O)O)NC1=O` [Compound 474] showed an IC50 of 0.019 µM. `CC(C)C[C@@H]1NC(=O)c2ccc(-c3ccc(N4CCN(Cc5cccc(CN6CCN(c7ccc(-c8ccc9cc8CNC(=O)[C@@H]8CCCN8[C@H](C(=O)NC(C)(C)C)[C@H](C)NC(=O)[C@H]([C@@H](C)O)NC(=O)[C@H](CC(=O)O)NC(=O)[C@H](CC(C)C)NC9=O)cc7)CC6)c5)CC4)cc3)c(c2)CNC(=O)[C@@H]2CCCN2[C@H](C(=O)NC(C)(C)C)[C@H](C)NC(=O)[C@H]([C@@H](C)O)NC(=O)[C@H](CC(=O)O)NC1=O` [Compound 499] gave an IC50 of 0.017 µM. Work on `CC(C)C[C@@H]1NC(=O)c2ccc(-c3ccc(N4CCN(C(=O)c5cc(C(=O)N6CCN(c7ccc(-c8ccc9cc8CNC(=O)[C@@H]8CCCN8[C@H](C(=O)NC(C)(C)C)[C@H](C)NC(=O)[C@H]([C@@H](C)O)NC(=O)[C@H](CC(=O)O)NC(=O)[C@H](CC(C)C)NC9=O)cc7)CC6)cc(C(=O)N6CCN(c7ccc(-c8ccc9cc8CNC(=O)[C@@H]8CCCN8[C@H](C(=O)NC(C)(C)C)[C@H](C)NC(=O)[C@H]([C@@H](C)O)NC(=O)[C@H](CC(=O)O)NC(=O)[C@H](CC(C)C)NC9=O)cc7)CC6)c5)CC4)cc3)c(c2)CNC(=O)[C@@H]2CCCN2[C@H](C(=O)NC(C)(C)C)[C@H](C)NC(=O)[C@H]([C@@H](C)O)NC(=O)[C@H](CC(=O)O)NC1=O` [Compound 520] yielded an IC50 of 0.0063 µM. With `CC(C)C[C@@H]1NC(=O)c2ccc(-c3ccc(N4CCN(c5ncc([N+](=O)[O-])c(N6CCN(c7ccc(-c8ccc9cc8CNC(=O)[C@@H]8CCCN8[C@H](C(=O)NC(C)(C)C)[C@H](C)NC(=O)[C@H]([C@@H](C)O)NC(=O)[C@H](CC(=O)O)NC(=O)[C@H](CC(C)C)NC9=O)cc7)CC6)n5)CC4)cc3)c(c2)CNC(=O)[C@@H]2CCCN2[C@H](C(=O)NC(C)(C)C)[C@H](C)NC(=O)[C@H]([C@@H](C)O)NC(=O)[C@H](CC(=O)O)NC1=O` [Compound 468] the IC50 was 0.032 µM. Work on `COc1cc(C(=O)N2CCN(c3ccc(-c4ccc5cc4CNC(=O)[C@@H]4CCCN4[C@H](C(=O)NC(C)(C)C)[C@H](C)NC(=O)[C@H]([C@@H](C)O)NC(=O)[C@H](CC(=O)O)NC(=O)[C@H](CC(C)C)NC5=O)cc3)CC2)cc(-c2ccc(C(=O)N3CCN(c4ccc(-c5ccc6cc5CNC(=O)[C@@H]5CCCN5[C@H](C(=O)NC(C)(C)C)[C@H](C)NC(=O)[C@H]([C@@H](C)O)NC(=O)[C@H](CC(=O)O)NC(=O)[C@H](CC(C)C)NC6=O)cc4)CC3)cc2F)c1` [Compound 464] yielded an IC50 of 0.061 µM. For `CC(C)C[C@@H]1NC(=O)c2ccc(-c3ccc(N4CCN(C(=O)CCCCCCCCCCC(=O)N5CCN(c6ccc(-c7ccc8cc7CNC(=O)[C@@H]7CCCN7[C@H](C(=O)NC(C)(C)C)[C@H](C)NC(=O)[C@H]([C@@H](C)O)NC(=O)[C@H](CC(=O)O)NC(=O)[C@H](CC(C)C)NC8=O)cc6)CC5)CC4)cc3)c(c2)CNC(=O)[C@@H]2CCCN2[C@H](C(=O)NC(C)(C)C)[C@H](C)NC(=O)[C@H]([C@@H](C)O)NC(=O)[C@H](CC(=O)O)NC1=O` [Compound 392], the IC50 was 0.018 µM. In the case of `CC(C)C[C@@H]1NC(=O)c2ccc(-c3ccc(N4CCN(C(=O)C[C@@H](N)C(=O)N5CCN(c6ccc(-c7ccc8cc7CNC(=O)[C@@H]7CCCN7[C@H](C(=O)NC(C)(C)C)[C@H](C)NC(=O)[C@H]([C@@H](C)O)NC(=O)[C@H](CC(=O)O)NC(=O)[C@H](CC(C)C)NC8=O)cc6)CC5)CC4)cc3)c(c2)CNC(=O)[C@@H]2CCCN2[C@H](C(=O)NC(C)(C)C)[C@H](C)NC(=O)[C@H]([C@@H](C)O)NC(=O)[C@H](CC(=O)O)NC1=O` [Compound 493], the IC50 is reported as 0.012 µM. For `CC(C)C[C@@H]1NC(=O)c2ccc(-c3ccc(N4CCN(Cc5ccc(CN6CCN(c7ccc(-c8ccc9cc8CNC(=O)[C@@H]8CCCN8[C@H](C(=O)NC(C)(C)C)[C@H](C)NC(=O)[C@H]([C@@H](C)O)NC(=O)[C@H](CC(=O)O)NC(=O)[C@H](CC(C)C)NC9=O)cc7)CC6)cc5)CC4)cc3)c(c2)CNC(=O)[C@@H]2CCCN2[C@H](C(=O)NC(C)(C)C)[C@H](C)NC(=O)[C@H]([C@@H](C)O)NC(=O)[C@H](CC(=O)O)NC1=O` [Compound 500], the IC50 was 0.012 µM. Work on `CC(C)C[C@@H]1NC(=O)c2ccc(-c3ccc(N4CCN(C(=O)c5nccnc5C(=O)N5CCN(c6ccc(-c7ccc8cc7CNC(=O)[C@@H]7CCCN7[C@H](C(=O)NC(C)(C)C)[C@H](C)NC(=O)[C@H]([C@@H](C)O)NC(=O)[C@H](CC(=O)O)NC(=O)[C@H](CC(C)C)NC8=O)cc6)CC5)CC4)cc3)c(c2)CNC(=O)[C@@H]2CCCN2[C@H](C(=O)NC(C)(C)C)[C@H](C)NC(=O)[C@H]([C@@H](C)O)NC(=O)[C@H](CC(=O)O)NC1=O` [Compound 467] yielded an IC50 of 0.0086 µM.
